# In PubChem BioAssay (NCI):
#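 Each compound was tested at five concentrations against cells in 96-well plates for 48 hours. TGI: concentration producing complete growth inhibition.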
# What was measured:
# Assay in all cases: NCI tumour cell line growth inhibition, 48 h
# UACC-257 melanoma = test system: UACC-257 melanoma
# OVCAR-3 ovarian = test system: OVCAR-3 ovarian
# ACHN renal = test system: ACHN renal
# LOX IMVI melanoma = test system: LOX IMVI melanoma
# KM12 colon = test system: KM12 colon
# HCT-116 colon = test system: HCT-116 colon
# MCF7 breast = test system: MCF7 breast
# SF-268 CNS = test system: SF-268 CNS
# 786-0 renal = test system: 786-0 renal
# HOP-92 NSCLC = test system: HOP-92 NSCLC
# NCI-H522 lung = test system: NCI-H522 lung
# SNB-19 CNS = test system: SNB-19 CNS
SMILES,TGI (UACC-257 melanoma) [µM],TGI (OVCAR-3 ovarian) [µM],TGI (ACHN renal) [µM],TGI (LOX IMVI melanoma) [µM],TGI (KM12 colon) [µM],TGI (HCT-116 colon) [µM],TGI (MCF7 breast) [µM],TGI (SF-268 CNS) [µM],TGI (786-0 renal) [µM],TGI (HOP-92 NSCLC) [µM],TGI (NCI-H522 lung) [µM],TGI (SNB-19 CNS) [µM]
NNC(=O)CC(=O)Nc1cccc(Cl)c1,> 100,> 100,> 100,> 100,> 100,> 100,> 100,> 100,> 100,> 100,> 100,> 100
COC(=O)C1Cc2ccc(O)c(O)c2CN1 (stereo not drawn),29.2,> 100,> 100,28.4,> 100,52.6,32,,31.8,86.7,> 100,> 100
O=P1(c2ccccc2)c2ccccc2-c2ccccc21,> 100,> 100,,> 100,> 100,> 100,> 100,> 100,> 100,> 100,> 100,> 100
S=C(N/N=C(\c1ccccc1)c1ccccn1)NC1CCCCC1,> 100,> 100,> 100,23.6,> 100,> 100,> 100,> 100,> 100,> 100,> 100,> 100
COc1cc(C2C3=C(COC3=O)Oc3cc4c(cc32)OCO4)ccc1O (stereo not drawn),> 100,0.471,> 94.7,> 100,> 100,> 48.3,> 100,> 66.4,> 100,> 78.1,1.31,> 100
COC(=O)/C=C\C(C#N)(C#N)N=Cc1cccc(OC)c1,29.8,26.1,7.63,> 50.8,32.6,7.14,38.9,33.4,13.7,7.29,3,46.3
CCCNC(=S)N/N=C(\C)c1ccc(S(=O)(=O)N(C)c2ccccc2)cc1,> 100,> 100,> 64.9,> 100,> 100,> 100,> 100,41.8,> 72.9,> 100,> 100,> 87.3
CCc1c2c(cc3c1CC1(C3)Cc3cc4c(c(C(=O)OC)c3C1)CCCC4)CCCC2 (stereo not drawn),> 100,> 100,> 100,> 100,> 100,65.1,> 100,,> 100,> 100,> 100,
COc1cccc(C23CCCC(C2)NCC3Br)c1OC (stereo not drawn),> 100,> 100,73.8,> 100,> 100,> 100,57.3,> 100,> 100,> 100,53.3,> 100
O=[N+]([O-])C(/C=C(\Cl)[N+](=O)[O-])=C1Nc2ccccc2N1,> 100,> 100,> 100,> 100,> 100,> 100,> 100,> 100,> 100,87,> 100,> 100
CCNC(=O)c1cc(Cl)ccc1NC(=O)C12CC3CC(CC(C3)C1)C2,> 100,> 100,> 100,> 100,> 100,> 100,> 100,> 100,61,> 100,> 100,> 100
CN(CC(=O)O)c1ncc2c(n1)C=CCC2,> 100,> 100,> 100,> 100,> 100,> 100,> 100,> 100,> 100,> 100,> 100,> 100
COc1ccc(OC)c(NCC(=O)Nn2cnc3ccc(S(=O)(=O)Nc4cc(OC)ccc4OC)cc3c2=O)c1,> 100,> 100,> 100,> 100,> 100,> 100,> 100,> 100,> 100,> 100,> 100,> 100
C1CSCCSCCCSC2CCCCC2SC1 (stereo not drawn),> 100,> 100,,> 100,> 100,> 100,> 100,> 100,> 100,> 100,> 100,> 100
